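48-hour exposure; five concentrations; linearly interpolated endpoints. GI50 = concentration required for 50% inhibition of growth.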 Activity calls are given as the source filed them. No stated cut-off is given here; in the data, active = GI50 up to about 1.1 µM and inactive = higher.
Key:
Assay in all cases: inhibition of tumour cell growth, NCI panel, 48 h
[1] = system: 786-0
[2] = system: A498
[3] = system: A549
[4] = system: ACHN
[5] = system: CAKI-1
[6] = system: CCRF-CEM
[7] = system: COLO 205
[8] = system: DLD-1
[9] = system: DMS-114
[10] = system: DMS-273
[11] = system: EKVX
[12] = system: HCC 2998
[13] = system: HCT-116
[14] = system: HCT-15
[15] = system: HL-60
[16] = system: HOP-62
[17] = system: HOP-92
[18] = system: HT-29
[19] = system: IGROV-1
[20] = system: K562
[21] = system: KM-20L2
[22] = system: KM12
[23] = system: LOX IMVI
[24] = system: LXFL 529
[25] = system: M14
[26] = system: M19-MEL
[27] = system: MOLT-4
[28] = system: Malme-3M
[29] = system: NCI-H226
[30] = system: NCI-H23
[31] = system: NCI-H460
[32] = system: NCI-H522
[33] = system: OVCAR-3
[34] = system: OVCAR-4
[35] = system: OVCAR-5
[36] = system: OVCAR-8
[37] = system: RPMI-8226
[38] = system: RXF 393
[39] = system: RXF 631
[40] = system: SF-268
[41] = system: SF-295
[42] = system: SF-539
[43] = system: SK-MEL-28
[44] = system: SK-MEL-2
[45] = system: SK-MEL-5
[46] = system: SK-OV-3
[47] = system: SN12C
[48] = system: SNB-19
[49] = system: SNB-75
[50] = system: SNB-78
[51] = system: SR
[52] = system: SW-620
[53] = system: TK-10
[54] = system: U-251
[55] = system: UACC-257
[56] = system: UACC-62
[57] = system: UO-31
[58] = system: XF498
[59] = system: HOP-18

NC1=C(Br)C(=O)c2ncccc2C1=O
GI50 [1]: 1.51 µM (inactive)
GI50 [2]: 3.72 µM (inactive)
GI50 [3]: 0.855 µM (active)
GI50 [4]: 0.406 µM (active)
GI50 [5]: 1.51 µM (inactive)
GI50 [6]: 1.4 µM (inactive)
GI50 [7]: 1.71 µM (inactive)
GI50 [8]: 0.607 µM (active)
GI50 [9]: 0.16 µM (active)
GI50 [10]: 0.352 µM (active)
GI50 [11]: 1.61 µM (inactive)
GI50 [12]: 1.11 µM (active)
GI50 [13]: 0.22 µM (active)
GI50 [14]: 0.352 µM
GI50 [15]: 0.505 µM (active)
GI50 [16]: 0.632 µM (active)
GI50 [17]: 1.45 µM (inactive)
GI50 [18]: 1.69 µM (inactive)
GI50 [19]: 1.11 µM (active)
GI50 [20]: 0.277 µM (active)
GI50 [21]: 1.86 µM (inactive)
GI50 [22]: 1.12 µM (active)
GI50 [23]: 0.137 µM (active)
GI50 [24]: 0.321 µM (active)
GI50 [25]: 0.673 µM (active)
GI50 [26]: 0.159 µM (active)
GI50 [27]: 1.63 µM (inactive)
GI50 [28]: 0.466 µM (active)
GI50 [29]: 1.69 µM (inactive)
GI50 [30]: 0.156 µM (active)
GI50 [31]: 0.393 µM (active)
GI50 [32]: 0.321 µM (active)
GI50 [33]: 1.09 µM (active)
GI50 [34]: 1.37 µM (inactive)
GI50 [35]: 1.95 µM (inactive)
GI50 [36]: 0.531 µM (active)
GI50 [37]: 0.942 µM (active)
GI50 [38]: 0.258 µM (active)
GI50 [39]: 1.79 µM (inactive)
GI50 [40]: 0.42 µM (active)
GI50 [41]: 0.367 µM (active)
GI50 [42]: 0.189 µM (active)
GI50 [43]: 0.34 µM (active)
GI50 [44]: 0.346 µM (active)
GI50 [45]: 0.284 µM (active)
GI50 [46]: 1.81 µM (inactive)
GI50 [47]: 0.815 µM (active)
GI50 [48]: 1.25 µM (inactive)
GI50 [49]: 0.183 µM (active)
GI50 [50]: 0.828 µM (active)
GI50 [51]: 0.173 µM (active)
GI50 [52]: 0.466 µM (active)
GI50 [53]: 2.62 µM (inactive)
GI50 [54]: 0.177 µM (active)
GI50 [55]: 0.483 µM (active)
GI50 [56]: 0.232 µM (active)
GI50 [57]: 0.316 µM (active)
GI50 [58]: 0.998 µM (active)

Cc1ccc(C)c(NC(=O)C(=O)C(C2C(C)CC(=O)C2CC(=O)O)[N+](=O)[O-])c1 (stereo not drawn)
GI50 [1]: > 100 µM (inactive)
GI50 [2]: > 100 µM (inactive)
GI50 [3]: > 100 µM (inactive)
GI50 [4]: > 100 µM (inactive)
GI50 [5]: > 100 µM (inactive)
GI50 [6]: > 100 µM (inactive)
GI50 [7]: > 100 µM (inactive)
GI50 [8]: > 100 µM (inactive)
GI50 [9]: > 100 µM (inactive)
GI50 [11]: > 100 µM (inactive)
GI50 [12]: > 100 µM (inactive)
GI50 [13]: > 100 µM (inactive)
GI50 [14]: > 100 µM
GI50 [15]: > 100 µM (inactive)
GI50 [16]: > 100 µM (inactive)
GI50 [17]: > 100 µM (inactive)
GI50 [18]: > 100 µM (inactive)
GI50 [19]: > 100 µM (inactive)
GI50 [20]: > 100 µM (inactive)
GI50 [21]: > 100 µM (inactive)
GI50 [22]: > 100 µM (inactive)
GI50 [23]: > 100 µM (inactive)
GI50 [24]: > 100 µM (inactive)
GI50 [25]: > 100 µM (inactive)
GI50 [26]: > 100 µM (inactive)
GI50 [27]: > 100 µM (inactive)
GI50 [28]: > 100 µM (inactive)
GI50 [29]: > 100 µM (inactive)
GI50 [30]: > 100 µM (inactive)
GI50 [31]: > 100 µM (inactive)
GI50 [33]: > 100 µM (inactive)
GI50 [34]: > 100 µM (inactive)
GI50 [35]: > 100 µM (inactive)
GI50 [37]: > 100 µM (inactive)
GI50 [38]: > 100 µM (inactive)
GI50 [39]: > 100 µM (inactive)
GI50 [40]: > 100 µM (inactive)
GI50 [41]: > 100 µM (inactive)
GI50 [42]: > 100 µM (inactive)
GI50 [43]: > 100 µM (inactive)
GI50 [44]: > 100 µM (inactive)
GI50 [45]: > 100 µM (inactive)
GI50 [46]: > 100 µM (inactive)
GI50 [47]: > 100 µM (inactive)
GI50 [48]: > 100 µM (inactive)
GI50 [49]: > 100 µM (inactive)
GI50 [50]: > 100 µM (inactive)
GI50 [51]: > 100 µM (inactive)
GI50 [52]: > 100 µM (inactive)
GI50 [53]: > 100 µM (inactive)
GI50 [54]: > 100 µM (inactive)
GI50 [55]: > 100 µM (inactive)
GI50 [56]: > 100 µM (inactive)
GI50 [57]: > 100 µM (inactive)
GI50 [58]: > 100 µM (inactive)

Cc1nc2c(sc(=S)n2-c2ccccc2)c2nc3ccccc3n12
GI50 [1]: > 100 µM (inactive)
GI50 [2]: > 10 µM (inactive)
GI50 [4]: > 100 µM (inactive)
GI50 [5]: > 100 µM (inactive)
GI50 [6]: > 100 µM (inactive)
GI50 [7]: > 100 µM (inactive)
GI50 [8]: > 100 µM (inactive)
GI50 [9]: > 100 µM (inactive)
GI50 [10]: > 100 µM (inactive)
GI50 [11]: > 100 µM (inactive)
GI50 [12]: > 100 µM (inactive)
GI50 [14]: > 100 µM
GI50 [15]: > 100 µM (inactive)
GI50 [59]: > 100 µM (inactive)
GI50 [16]: > 100 µM (inactive)
GI50 [18]: > 100 µM (inactive)
GI50 [19]: > 100 µM (inactive)
GI50 [20]: > 100 µM (inactive)
GI50 [22]: > 100 µM (inactive)
GI50 [23]: > 100 µM (inactive)
GI50 [24]: > 100 µM (inactive)
GI50 [25]: > 100 µM (inactive)
GI50 [26]: > 100 µM (inactive)
GI50 [27]: > 100 µM (inactive)
GI50 [28]: > 100 µM (inactive)
GI50 [29]: > 100 µM (inactive)
GI50 [30]: > 100 µM (inactive)
GI50 [32]: > 100 µM (inactive)
GI50 [33]: > 100 µM (inactive)
GI50 [34]: > 100 µM (inactive)
GI50 [35]: > 100 µM (inactive)
GI50 [36]: > 100 µM (inactive)
GI50 [37]: > 100 µM (inactive)
GI50 [38]: > 100 µM (inactive)
GI50 [39]: > 100 µM (inactive)
GI50 [40]: > 100 µM (inactive)
GI50 [41]: > 100 µM (inactive)
GI50 [42]: > 100 µM (inactive)
GI50 [43]: > 100 µM (inactive)
GI50 [44]: > 100 µM (inactive)
GI50 [46]: > 100 µM (inactive)
GI50 [47]: > 100 µM (inactive)
GI50 [48]: > 100 µM (inactive)
GI50 [49]: > 100 µM (inactive)
GI50 [50]: > 100 µM (inactive)
GI50 [53]: > 100 µM (inactive)
GI50 [54]: > 100 µM (inactive)
GI50 [55]: > 100 µM (inactive)
GI50 [56]: > 100 µM (inactive)
GI50 [57]: > 100 µM (inactive)

— ChEMBL document CHEMBL1201862, “PubChem BioAssay data set” (2004)
